In patent US9745320B2, “Five-and-six-membered heterocyclic compound, and preparation method, pharmaceutical composition and use thereof” (SHANGHAI CHEMEXPLORER CO., LTD., priority 2013, dated 2017) one finds IC50 data, which are given here for 16 compounds.

Each structure is given as a SMILES string.

Holding throughout (type): biochemical
For one assay, the target named is JAK1 (Homo sapiens, UniProt P23458). The assay can be described thus: JAK 1 enzymatic inhibitory activity IC50 assay (Caliper conversion rate). The note with it: Km ATP, 28° C., 1 hour. Here is the method: (§1) Biological effect: intracytoplasmic JAK 1,2,3 enzymatic inhibitory activity IC50 assay
Sequence of JAK1 (P23458 whole entry, species assumed): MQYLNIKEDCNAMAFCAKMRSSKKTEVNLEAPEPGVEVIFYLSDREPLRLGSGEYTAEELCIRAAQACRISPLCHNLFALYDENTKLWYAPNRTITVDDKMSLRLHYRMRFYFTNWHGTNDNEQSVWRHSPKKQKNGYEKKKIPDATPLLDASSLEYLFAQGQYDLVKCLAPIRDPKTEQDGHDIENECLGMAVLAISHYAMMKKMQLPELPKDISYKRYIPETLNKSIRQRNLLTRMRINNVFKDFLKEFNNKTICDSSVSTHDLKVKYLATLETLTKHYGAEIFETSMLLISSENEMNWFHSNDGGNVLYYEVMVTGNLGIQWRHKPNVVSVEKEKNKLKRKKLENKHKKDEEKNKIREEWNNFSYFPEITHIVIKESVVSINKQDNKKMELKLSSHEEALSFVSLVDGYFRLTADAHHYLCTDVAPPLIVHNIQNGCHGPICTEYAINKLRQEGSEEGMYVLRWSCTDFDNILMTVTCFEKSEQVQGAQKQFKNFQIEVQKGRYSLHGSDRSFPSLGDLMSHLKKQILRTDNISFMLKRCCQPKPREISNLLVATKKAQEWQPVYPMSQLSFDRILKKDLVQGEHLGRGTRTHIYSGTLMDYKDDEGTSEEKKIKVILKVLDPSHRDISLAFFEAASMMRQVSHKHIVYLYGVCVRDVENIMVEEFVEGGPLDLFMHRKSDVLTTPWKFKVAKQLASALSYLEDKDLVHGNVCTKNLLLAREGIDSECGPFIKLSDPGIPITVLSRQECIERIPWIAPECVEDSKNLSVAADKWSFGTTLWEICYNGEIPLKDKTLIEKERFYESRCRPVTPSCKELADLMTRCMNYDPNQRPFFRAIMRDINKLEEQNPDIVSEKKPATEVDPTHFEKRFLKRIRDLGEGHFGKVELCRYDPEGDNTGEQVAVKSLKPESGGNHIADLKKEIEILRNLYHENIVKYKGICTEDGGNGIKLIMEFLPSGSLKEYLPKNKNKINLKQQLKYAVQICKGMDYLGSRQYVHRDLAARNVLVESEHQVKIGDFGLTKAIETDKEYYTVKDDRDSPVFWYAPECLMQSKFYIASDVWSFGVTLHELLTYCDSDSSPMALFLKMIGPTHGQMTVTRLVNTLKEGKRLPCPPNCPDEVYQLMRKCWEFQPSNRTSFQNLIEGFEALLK
(§2) JAK1 buffer solution: 25 mM HEPES, pH 7.5, 0.01% Brij-35, 0.01 M Triton. JAK2,3 buffer solution: 50 mM HEPES, pH 7.5, 0.0015% Brij-35.
(§3) 2. Compound was formulated in 100% DMSO in a concentration gradient, deposited to a 384-well plate with a final concentration of 2% of DMSO.
(§4) 3. JAK2,3 enzymes were diluted to having an optimum concentration with the following buffer: 50 mM HEPES, pH 7.5, 0.0015% Brij-35, 2 mM DTT. JAK1 enzyme was diluted to having an optimum concentration with the following buffer: 25 mM HEPES, pH 7.5, 0.01% Brij-35, 2 mM DTT, 0.01M Triton. Then they were transferred to a 384-well plate and incubated with the compound for a certain time.
(§5) 4. JAK2,3 substrate was diluted to having an optimum concentration with the following buffer: 50 mM HEPES, pH 7.5, 0.0015% Brij-35, 10 mM MgCl2, Km adenosine triphosphate. JAK1 substrate was diluted to having an optimum concentration with the following buffer: 25 mM HEPES, pH 7.5, 0.01% Brij-35, 10 mM MgCl2, 0.01 M Triton. Km adenosine triphosphate was added into 384-well plates to initiate reactions, and the reaction were carried out at 28° C. for 1 hour.
(§6) 5. Read the conversion rate by Caliper Reader, and the inhibition rate are calculated according to the average of two tests.

Another assay has as its target JAK2 (Homo sapiens, UniProt O60674). Nature of the assay: JAK 2 enzymatic inhibitory activity IC50 assay (Caliper conversion rate). Conditions: Km ATP, 28° C., 1 hour. Here is the method: as §1, §2, §3, §4, §5, §6
In a further assay the target is T1, JAK3 (Homo sapiens, UniProt P52333).
T1 sequence (P52333 1-1124): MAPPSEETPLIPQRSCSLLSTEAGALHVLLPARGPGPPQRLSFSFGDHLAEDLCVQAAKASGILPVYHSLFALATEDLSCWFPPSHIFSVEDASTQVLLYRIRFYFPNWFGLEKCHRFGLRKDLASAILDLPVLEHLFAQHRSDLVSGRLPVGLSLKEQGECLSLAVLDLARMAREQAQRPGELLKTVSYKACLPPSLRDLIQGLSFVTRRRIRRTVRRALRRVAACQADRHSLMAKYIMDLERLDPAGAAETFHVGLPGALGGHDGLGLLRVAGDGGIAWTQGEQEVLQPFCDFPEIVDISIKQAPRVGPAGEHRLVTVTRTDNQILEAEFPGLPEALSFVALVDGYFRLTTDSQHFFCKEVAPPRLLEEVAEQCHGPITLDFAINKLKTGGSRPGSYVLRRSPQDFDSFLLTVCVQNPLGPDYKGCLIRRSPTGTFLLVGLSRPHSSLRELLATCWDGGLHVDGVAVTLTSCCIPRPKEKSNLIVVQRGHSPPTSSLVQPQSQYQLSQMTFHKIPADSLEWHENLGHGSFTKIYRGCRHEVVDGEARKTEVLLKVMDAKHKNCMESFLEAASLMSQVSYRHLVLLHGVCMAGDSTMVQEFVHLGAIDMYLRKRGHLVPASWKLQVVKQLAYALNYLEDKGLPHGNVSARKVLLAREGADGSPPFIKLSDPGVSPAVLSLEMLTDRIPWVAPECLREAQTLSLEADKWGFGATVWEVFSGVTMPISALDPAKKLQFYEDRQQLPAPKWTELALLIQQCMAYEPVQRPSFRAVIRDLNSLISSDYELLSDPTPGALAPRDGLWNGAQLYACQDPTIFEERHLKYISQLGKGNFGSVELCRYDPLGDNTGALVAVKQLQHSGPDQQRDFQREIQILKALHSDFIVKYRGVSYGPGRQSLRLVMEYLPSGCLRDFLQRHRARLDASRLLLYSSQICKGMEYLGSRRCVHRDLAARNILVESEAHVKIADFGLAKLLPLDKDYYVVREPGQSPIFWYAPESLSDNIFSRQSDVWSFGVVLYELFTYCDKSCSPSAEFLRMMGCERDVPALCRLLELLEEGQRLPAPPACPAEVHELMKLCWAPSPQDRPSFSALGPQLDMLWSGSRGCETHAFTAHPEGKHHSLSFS
The assay can be described thus: JAK 3 enzymatic inhibitory activity IC50 assay (Caliper conversion rate). Conditions: Km ATP, 28° C., 1 hour; read-out: JAK 3 enzymatic inhibitory activity IC50. Here is the method: as §1, §2, §3
3. JAK2,3 enzymes were diluted to having an optimum concentration with the following buffer: 50 mM HEPES, pH 7.5, 0.0015% Brij-35, 2 mM DTT. JAK1 enzyme was diluted to having an optimum concentration with the following buffer: 25 mM HEPES, pH 7.5, 0.01% Brij-35, 2 mM DTT, 0.01M Triton. Then they were transferred to a 384-well plate and incubated with the compound for a certain time. […]
as §6

Sequence of JAK2 (O60674 whole entry, species assumed): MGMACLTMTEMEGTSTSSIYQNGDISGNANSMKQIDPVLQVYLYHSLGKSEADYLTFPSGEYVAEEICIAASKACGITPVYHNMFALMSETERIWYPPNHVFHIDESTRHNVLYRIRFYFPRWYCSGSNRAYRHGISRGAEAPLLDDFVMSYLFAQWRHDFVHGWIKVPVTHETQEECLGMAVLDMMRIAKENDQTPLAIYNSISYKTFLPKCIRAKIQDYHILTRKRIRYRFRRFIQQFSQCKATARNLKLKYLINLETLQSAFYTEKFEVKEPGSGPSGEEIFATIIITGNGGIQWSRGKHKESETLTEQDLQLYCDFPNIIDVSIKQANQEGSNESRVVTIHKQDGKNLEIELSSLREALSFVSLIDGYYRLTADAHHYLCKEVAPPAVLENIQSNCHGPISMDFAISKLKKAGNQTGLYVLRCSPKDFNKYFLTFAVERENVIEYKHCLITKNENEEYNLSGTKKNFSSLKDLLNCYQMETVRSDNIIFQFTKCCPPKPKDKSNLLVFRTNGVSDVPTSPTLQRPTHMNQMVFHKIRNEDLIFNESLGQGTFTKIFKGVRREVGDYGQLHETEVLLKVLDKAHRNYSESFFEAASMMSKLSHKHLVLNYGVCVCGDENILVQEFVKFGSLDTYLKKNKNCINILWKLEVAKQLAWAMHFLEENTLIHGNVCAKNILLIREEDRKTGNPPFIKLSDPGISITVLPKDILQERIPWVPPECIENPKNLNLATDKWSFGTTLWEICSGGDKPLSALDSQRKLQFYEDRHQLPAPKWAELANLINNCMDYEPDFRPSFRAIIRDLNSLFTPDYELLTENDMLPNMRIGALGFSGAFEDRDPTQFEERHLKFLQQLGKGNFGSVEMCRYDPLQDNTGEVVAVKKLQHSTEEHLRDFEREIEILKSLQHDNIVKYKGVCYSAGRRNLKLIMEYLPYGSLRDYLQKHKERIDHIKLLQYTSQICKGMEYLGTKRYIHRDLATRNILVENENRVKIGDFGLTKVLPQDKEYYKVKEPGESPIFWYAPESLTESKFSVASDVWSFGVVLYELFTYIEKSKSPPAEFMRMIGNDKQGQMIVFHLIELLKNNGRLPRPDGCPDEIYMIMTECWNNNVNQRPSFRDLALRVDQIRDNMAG

As for `CCS(=O)(=O)N1CC(CC#N)(n2cc(-c3nc(Nc4cnn(CCC(=O)O)c4)nc4ccsc34)cn2)C1` [Compound T-35, 3-(4-((4-(1-(3-(Cyanomethyl)-1-(ethylsulfonyl)azetidin-3-yl)-1H-pyrazol-4-yl)thieno[3,2-d]pyrimidin-2-yl)amino)-1H-pyrazol-1-yl)propanoic acid], the IC50 at JAK1 is under 0.05 µM; at JAK2, under 0.05 µM; at JAK3, 0.05 to 0.5 µM.
Consider `CCS(=O)(=O)N1CC(CC#N)(n2cc(-c3nc(Nc4cnn(CCC(=O)N(C)C)c4)nc4ccsc34)cn2)C1` [Compound T-36, 3-(4-((4-(1-(3-(Cyanomethyl)-1-(ethylsulfonyl)azetidin-3-yl)-1H-pyrazol-4-yl)thieno[3,2-d]pyrimidin-2-yl)amino)-1H-pyrazol-1-yl)-N,N-dimethylpropanamide], for which the figures for the IC50 on JAK1, on JAK2 and at JAK3 were 0.05 to 0.5 µM, under 0.05 µM and under 0.05 µM, respectively.
Turning to `CCS(=O)(=O)N1CC(CC#N)(n2cc(-c3nc(Nc4cnn(CCCC(=O)N(C)C)c4)nc4ccsc34)cn2)C1` [Compound T-37, 4-(4-((4-(1-(3-(Cyanomethyl)-1-(ethylsulfonyl)azetidin-3-yl)-1H-pyrazol-4-yl)thieno[3,2-d]pyrimidin-2-yl)amino)-1H-pyrazol-1-yl)-N,N-dimethylbutanamide], the IC50 at JAK1, on JAK2 and on JAK3 was under 0.05 µM in each case.
For the compound `CCS(=O)(=O)N1CC(CC#N)(n2cc(-c3nc(Nc4cnn(C5CCOCC5)c4)nc4ccsc34)cn2)C1` [Compound T-38, 2-(1-(Ethylsulfonyl)-3-(4-(2-((1-(tetrahydro-2H-pyran-4-yl)-1H-pyrazol-4-yl)amino)thieno[3,2-d]pyrimidin-4-yl)-1H-pyrazol-1-yl)azetidin-3-yl)acetonitrile], the IC50 against JAK1, at JAK2 and at JAK3 was under 0.05 µM each time.
`CCS(=O)(=O)N1CC(CC#N)(n2cc(-c3nc(Nc4cnn(C5COC5)c4)nc4ccsc34)cn2)C1` [Compound T-39, 2-(1-(Ethylsulfonyl)-3-(4-(2-((1-(oxetan-3-yl)-1H-pyrazol-4-yl)amino)thieno[3,2-d]pyrimidin-4-yl)-1H-pyrazol-1-yl)azetidin-3-yl)acetonitrile]: the half-maximal inhibitory concentration (IC50) at JAK1 is 0.05 to 0.5 µM; against JAK2 it was under 0.05 µM; on JAK3, under 0.05 µM.
`CCn1cc(Nc2nc(-c3cnn(C4(CC#N)CN(S(=O)(=O)CC)C4)c3)c3sccc3n2)cn1` [Compound T-40, 2-(3-(4-(2-((1-Ethyl-1H-pyrazol-4-yl)amino)thieno[3,2-d]pyrimidin-4-yl)-1H-pyrazol-1-yl)-1-(ethylsulfonyl)azetidin-3-yl)acetonitrile]: the IC50 at JAK1, against JAK2 and at JAK3 was under 0.05 µM each time.
On to `CCS(=O)(=O)N1CC(CC#N)(n2cc(-c3nc(Nc4cnn(C(C)C)c4)nc4ccsc34)cn2)C1` [Compound T-41, 2-(1-(Ethylsulfonyl)-3-(4-(2-((1-isopropyl-1H-pyrazol-4-yl)amino)thieno[3,2-d]pyrimidin-4-yl)-1H-pyrazol-1-yl)azetidin-3-yl)acetonitrile], for which the IC50 against JAK1, against JAK2 and at JAK3 was under 0.05 µM each time.
With `Cn1cc(Nc2nc(-c3cnn(C4(CC#N)COC4)c3)c3ccsc3n2)cn1` [Compound T-42, 2-(3-(4-(2-((1-Methyl-1H-pyrazol-4-yl)amino)thieno[2,3-d]pyrimidin-4-yl)-1H-pyrazol-1-yl)oxetan-3-yl)acetonitrile], the IC50 against JAK1 was 0.5 to 1 µM; against JAK2, 0.05 to 0.5 µM; on JAK3, over 1 µM.
For `Cn1cc(Nc2nc(-c3cnn(C4(CC#N)COC4)c3)c3sccc3n2)cn1` [Compound T-43, 2-(3-(4-(2-((1-Methyl-1H-pyrazol-4-yl)amino)thieno[3,2-d]pyrimidin-4-yl)-1H-pyrazol-1-yl)oxetan-3-yl)acetonitrile], in that order: 0.05 to 0.5 µM, under 0.05 µM and 0.05 to 0.5 µM.
In the same order, the values of `Cn1cc(Nc2nc(-c3cnn(C4(CC#N)CCOCC4)c3)c3sccc3n2)cn1` [Compound T-44, 2-(4-(4-(2-((1-Methyl-1H-pyrazol-4-yl)amino)thieno[3,2-d]pyrimidin-4-yl)-1H-pyrazol-1-yl)tetrahydro-2H-pyran-4-yl)acetonitrile] are 0.05 to 0.5 µM, under 0.05 µM and 0.05 to 0.5 µM.
Take `CCS(=O)(=O)N1CC(CC#N)(n2cc(-c3nc(Nc4ccc(-c5nn[nH]n5)cc4)nc4ccsc34)cn2)C1` [Compound T-45, 2-(3-(4-(2-((4-(2H-Tetrazol-5-yl)phenyl)amino)thieno[3,2-d]pyrimidin-4-yl)-1H-pyrazol-1-yl)-1-(ethylsulfonyl)azetidin-3-yl)acetonitrile]: the IC50 against JAK1 is under 0.05 µM; at JAK2, under 0.05 µM; at JAK3, 0.05 to 0.5 µM.
`CCC(=O)N1CC(CC#N)(n2cc(-c3nc(Nc4cnn(C)c4)nc4ccsc34)cn2)C1` [Compound T-46, 2-(3-(4-(2-((1-Methyl-1H-pyrazol-4-yl)amino)thieno[3,2-d]pyrimidin-4-yl)-1H-pyrazol-1-yl)-1-propionylazetidin-3-yl)acetonitrile]: the IC50 is 0.05 to 0.5 µM against JAK1, under 0.05 µM against JAK2 and 0.5 to 1 µM at JAK3.
Regarding `CCS(=O)(=O)N1CC(CC#N)(n2cc(-c3nc(Nc4ccnnc4)nc4ccsc34)cn2)C1` [Compound T-47, 2-(1-(Ethylsulfonyl)-3-(4-(2-(pyridazin-4-ylamino)thieno[3,2-d]pyrimidin-4-yl)-1H-pyrazol-1-yl)azetidin-3-yl)acetonitrile], the IC50 at JAK1 was 0.5 to 1 µM; against JAK2, 0.5 to 1 µM; on JAK3, over 1 µM.
As to `CCS(=O)(=O)N1CC(CC#N)(n2cc(-c3nc(Nc4cn(C)cn4)nc4ccsc34)cn2)C1` [Compound T-48, 2-(1-(Ethylsulfonyl)-3-(4-(2-((1-methyl-1H-imidazol-4-yl)amino)thieno[3,2-d]pyrimidin-4-yl)-1H-pyrazol-1-yl)azetidin-3-yl)acetonitrile], the IC50 was over 1 µM at JAK1, 0.05 to 0.5 µM on JAK2 and over 1 µM at JAK3.
Regarding `Cn1cc(Nc2nc(-c3cnn(C4(CC#N)CN(C(=O)CO)C4)c3)c3sccc3n2)cn1` [Compound T-49, 2-(1-(2-Hydroxyacetyl)-3-(4-(2-((1-methyl-1H-pyrazol-4-yl)amino)thieno[3,2-d]pyrimidin-4-yl)-1H-pyrazol-1-yl)azetidin-3-yl)acetonitrile], the values for the IC50 at JAK1, at JAK2 and on JAK3 were 0.5 to 1 µM, under 0.05 µM and 0.5 to 1 µM, respectively.
Take `N#CCC1(n2cc(-c3nc(Nc4cnn(CCN5CCOCC5)c4)nc4ccsc34)cn2)CCOCC1` [Compound T-50, 2-(4-(4-(2-((1-(2-Morpholinoethyl)-1H-pyrazol-4-yl)amino)thieno[3,2-d]pyrimidin-4-yl)-1H-pyrazol-1-yl)tetrahydro-2H-pyran-4-yl)acetonitrile]: the concentration for half-maximal inhibition (IC50) against JAK1 was 0.5 to 1 µM; against JAK2, under 0.05 µM; on JAK3, 0.5 to 1 µM.
